The values that follow come from US6693165B2 (Merck & Co., Inc., priority 2000, dated 2004).

Numbered stars: 1 amine (or outer) side, 2 acyl side, 3 side chain; on linkers, the order of the positions; unused ones are H or OH. Bridge positions count the residues as written; N and C are the ends. Square brackets hold non-standard residues; d marks the D form. Peptide text beside a SMILES is read from it. dPhe(4-tBu) = CC(C)(C)c1ccc(C[C@@H](N)C(=O)O)cc1; dPhe(4-Cl) = N[C@H](Cc1ccc(Cl)cc1)C(=O)O; dPhe(4-F) = N[C@H](Cc1ccc(F)cc1)C(=O)O; d2Nal = N[C@H](Cc1ccc2ccccc2c1)C(=O)O; Maleoyl = O=C(/C=C\C(=O)[*:2])[*:1]; dBta = N[C@H](Cc1csc2ccccc12)C(=O)O; Suc = O=C(CCC(=O)[*:2])[*:1]; Dap = NC[C@H](N)C(=O)O

One assay has as its target T1, human MC4 receptor (Homo sapiens, UniProt P32245).
T1 construct: expressed in transfected cells; host or cells: Chinese hamster ovary (CHO) cells
The experiment in a line: Competitive binding assay, human MC4 receptor. The following applies: for IC50: CHO cell membranes expressing human MC4 receptor, 200 pM [125I]-NDP-α-MSH, three independent experiments, read-out: hMC-4R (binding data); for 3:4: selectivity ratio of hMC-3R to hMC-4R binding values; for 5:4: selectivity ratio of hMC-5R to hMC-4R binding values. As for the experimental part: (§1) The peptides of the present invention were evaluated for antagonist activity in receptor binding assay. Crude membrane preparations were obtained from Chinese hamster ovary cells expressing human MC3, MC4, and MC5 receptors. Cells were rinsed with phosphate-buffered saline (PBS) lacking CaCl2 or MgCl2 (Life Technologies, Gaithersburg, Md., USA), and then detached with enzyme-free dissociation media (Specialty Media, Lavellette, N.J., USA). Cells were pelleted at 2800×g for 10 min and resuspended in membrane buffer (20 mM Tris, pH 7.2, 5 mM ethylenediaminetetraacetic acid) with 5 μg/ml leupeptin, 5 μg/ml aprotinin, 40 μg/ml bacitracin, and 25 μg/ml pefabloc (Boehringer Mannheim). The cells were […] with 10 strokes by using a motor-driven Teflon-coated pestle in a glass homogenizer at low speed. The resulting cell suspension was centrifuged at 4100×g, 4° C., for 20 min. The pellet was resuspended in fresh membrane buffer with protease inhibitors, aliquoted, snap-frozen in liquid nitrogen, and stored at −80° C. The resulting crude membranes were titrated to determine the optimal level necessary for performing binding studies.
(§2) Binding reactions (total volume=250 μl) contained MBB (50 mM Tris, pH 7.2, 2 mM CaCl2, 1 mM MgCl2), 0.1% bovine serum albumin, crude membranes prepared from cells expressing human MC3, MC4, or MC5 receptor, 200 pM of [125I]-NDP-α-MSH (Amersham, Arlington Heighs, Ill., USA), and increasing concentrations of unlabeled test compounds dissolved in dimethylsulfoxide (final concentration=2%). Reactions were incubated for 1 h without shaking and then filtered through 96-well filter plates (Packard), presoaked in 1% polyethyleneimine. Filters were washed 3 times with TNE buffer (50 mM Tris, pH 7.4, 5 mM ethylene-diaminetetraacetic acid, 150 mM NaCl), dried and counted by using Microscint-20 in a Topcount scintillation counter (Packard).

For another assay, the target named is T2, human MC5 receptor (Homo sapiens, UniProt P33032).
T2 construct: expressed in transfected cells; host or cells: Chinese hamster ovary (CHO) cells
Description: Competitive binding assay, human MC5 receptor. The following applies: CHO cell membranes expressing human MC5 receptor; 200 pM [125I]-NDP-α-MSH; three independent experiments; read-out: hMC-5R (binding data). On the procedure:
as §1, §2

For the next assay, the target named is human MC3 receptor (Homo sapiens, UniProt P41968). Description: Competitive binding assay, human MC3 receptor. The following applies: hMC-3R (binding data), CHO cell membranes expressing human MC3 receptor; 200 pM [125I]-NDP-α-MSH; three independent experiments.
For assay [1] the following is noted: rats; cited from earlier work.

T2 sequence (P33032 whole entry): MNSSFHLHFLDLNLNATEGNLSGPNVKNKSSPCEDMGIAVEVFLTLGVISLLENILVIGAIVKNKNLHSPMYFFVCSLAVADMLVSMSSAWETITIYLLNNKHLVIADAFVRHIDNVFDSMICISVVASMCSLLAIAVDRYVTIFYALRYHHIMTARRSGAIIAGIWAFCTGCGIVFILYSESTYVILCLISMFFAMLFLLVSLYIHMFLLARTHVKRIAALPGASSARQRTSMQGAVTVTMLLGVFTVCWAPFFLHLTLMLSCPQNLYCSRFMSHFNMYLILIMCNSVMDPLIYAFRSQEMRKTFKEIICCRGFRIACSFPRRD
Sequence of human MC3 receptor (P41968 whole entry): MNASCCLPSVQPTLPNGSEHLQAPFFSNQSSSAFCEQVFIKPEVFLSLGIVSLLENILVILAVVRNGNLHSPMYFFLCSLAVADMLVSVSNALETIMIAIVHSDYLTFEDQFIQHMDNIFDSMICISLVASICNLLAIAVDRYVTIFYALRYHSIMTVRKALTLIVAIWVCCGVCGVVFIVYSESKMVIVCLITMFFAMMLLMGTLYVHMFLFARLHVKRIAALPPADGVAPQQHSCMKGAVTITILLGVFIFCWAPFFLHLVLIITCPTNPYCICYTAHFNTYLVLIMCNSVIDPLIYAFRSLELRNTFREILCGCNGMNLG
T1 sequence (P32245 whole entry): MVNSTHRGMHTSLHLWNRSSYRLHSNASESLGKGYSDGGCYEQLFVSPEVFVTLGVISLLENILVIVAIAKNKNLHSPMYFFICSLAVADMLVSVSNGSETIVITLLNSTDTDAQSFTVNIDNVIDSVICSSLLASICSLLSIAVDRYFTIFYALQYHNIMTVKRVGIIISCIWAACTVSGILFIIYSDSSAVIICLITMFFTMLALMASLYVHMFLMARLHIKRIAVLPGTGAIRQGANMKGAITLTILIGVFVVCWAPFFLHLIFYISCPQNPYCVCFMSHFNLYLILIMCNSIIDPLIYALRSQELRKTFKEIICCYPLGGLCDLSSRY

Consider `N=C(N)NCCC[C@@H]1NC(=O)[C@@H](Cc2ccc3ccccc3c2)NC(=O)C2CC2C(=O)NCCCC[C@@H](C(N)=O)NC(=O)[C@H](Cc2c[nH]c3ccccc23)NC1=O` (single isomer, unassigned) [11 a], for which, at human MC4 receptor, the IC50 is 0.0006 ± 0.0001 µM, the “3:4” value is recorded as 216 and the “5:4” value is on record as 316. The IC50 at human MC5 receptor was 0.19 ± 0.037 µM. Also, at human MC3 receptor, the IC50 came to 0.13 ± 0.016 µM.
`N=C(N)NCCC[C@@H]1NC(=O)[C@@H](Cc2ccc3ccccc3c2)NC(=O)C2CC2C(=O)NCCCC[C@@H](C(N)=O)NC(=O)[C@H](Cc2c[nH]c3ccccc23)NC1=O` (single isomer, unassigned) [11 b]: on human MC4 receptor, the IC50 worked out at 0.0016 ± 0.0002 µM, the “3:4” value is given as 168 and the “5:4” value was found to be 337. On human MC5 receptor, the IC50 was determined as 0.54 ± 0.23 µM. Besides, the IC50 on human MC3 receptor was 0.27 ± 0.024 µM.
The like results for `N=C(N)NCCC[C@@H]1NC(=O)[C@@H](Cc2ccc3ccccc3c2)NC(=O)[C@H](Cc2c[nH]cn2)NC(=O)[C@@H](N)CC(=O)NCCCC[C@@H](C(N)=O)NC(=O)[C@H](Cc2c[nH]c3ccccc23)NC1=O` [Example 3] were, in that order, 0.0017 ± 0.0008 µM, 9, 14, 0.024 ± 0.0067 µM and 0.016 ± 0.0052 µM.
The like results for `CC(=O)N[C@H]1CC(=O)NCCCC[C@@H](C(N)=O)NC(=O)[C@H](Cc2c[nH]c3ccccc23)NC(=O)[C@H](CCCNC(=N)N)NC(=O)[C@@H](Cc2ccc3ccccc3c2)NC1=O` [Example 6] (Ac-D[d2Nal]RWK-NH2; lactam 1-5) were, in that order, 0.0047 ± 0.0006 µM, 46, 234, 1.1 ± 0.15 µM and 0.22 ± 0.0067 µM.
The like results for `N=C(N)NCCC[C@@H]1NC(=O)[C@@H](Cc2ccc3ccccc3c2)NC(=O)[C@H](Cc2c[nH]cn2)NC(=O)CCC(=O)NCCCC[C@@H](C(N)=O)NC(=O)[C@H](Cc2c[nH]c3ccccc23)NC1=O` [Example 7] (H[d2Nal]RWK-NH2; linker N-5 via Suc) were, in that order, 0.001 ± 0.0001 µM, 52, 200, 0.2 ± 0.0036 µM and 0.052 ± 0.0079 µM.
With `N=C(N)NCCC[C@@H]1NC(=O)[C@@H](Cc2ccc3ccccc3c2)NC(=O)[C@H](Cc2c[nH]cn2)NC(=O)CCC(=O)NC[C@@H](C(N)=O)NC(=O)[C@H](Cc2c[nH]c3ccccc23)NC1=O` [Example 8] (H[d2Nal]RW[Dap]-NH2; linker N-5 via Suc), on human MC4 receptor, the IC50 was 0.0002 ± 3e-05 µM, the “3:4” value is listed as 95 and the “5:4” value turned out to be 355. Also, the IC50 on human MC5 receptor is 0.071 ± 0.0084 µM. The same compound came in with an IC50 on human MC3 receptor of 0.019 ± 0.0015 µM.
Turning to `N=C(N)NCCC[C@@H]1NC(=O)[C@@H](Cc2ccc3ccccc3c2)NC(=O)/C=C\C(=O)NCCCC[C@@H](C(N)=O)NC(=O)[C@H](Cc2c[nH]c3ccccc23)NC1=O` [Example 12] ([d2Nal]RWK-NH2; linker N-4 via Maleoyl), at human MC4 receptor, the “3:4” value was found to be 300 and the “5:4” value came out at 270.
For `CC(C)(C)c1ccc(C[C@H]2NC(=O)CCC(=O)NCCCC[C@@H](C(N)=O)NC(=O)[C@H](Cc3c[nH]c4ccccc34)NC(=O)[C@H](CCCNC(=N)N)NC2=O)cc1` [Example 14] ([dPhe(4-tBu)]RWK-NH2; linker N-4 via Suc), on human MC4 receptor, the IC50 was found to be 0.046 ± 0.006 µM, the “3:4” value was determined as 37 and the “5:4” value turned out to be 54. The IC50 at human MC5 receptor turned out to be 2.5 ± 1 µM. This compound gave an IC50 at human MC3 receptor of 1.5 ± 1.1 µM.
For `N=C(N)NCCC[C@@H]1NC(=O)[C@@H](Cc2csc3ccccc23)NC(=O)CCC(=O)NCCCC[C@@H](C(N)=O)NC(=O)[C@H](Cc2c[nH]c3ccccc23)NC1=O` [Example 16] ([dBta]RWK-NH2; linker N-4 via Suc), on human MC4 receptor, the IC50 amounted to 0.069 ± 0.012 µM, the “3:4” value was 81 and the “5:4” value was determined as 44. For the same compound, the IC50 on human MC5 receptor stood at 3 ± 1 µM. The compound further returned an IC50 at human MC3 receptor of 5.6 ± 3.9 µM.
The corresponding values for `N=C(N)NCCC[C@@H]1NC(=O)[C@@H](Cc2ccc(Cl)cc2)NC(=O)CCC(=O)NCCCC[C@@H](C(N)=O)NC(=O)[C@H](Cc2c[nH]c3ccccc23)NC1=O` [Example 17] ([dPhe(4-Cl)]RWK-NH2; linker N-4 via Suc) are 0.0035 ± 0.0003 µM, 163, 126, 0.44 ± 0.24 µM and 0.57 ± 0.29 µM.
The corresponding values for `N=C(N)NCCC[C@@H]1NC(=O)[C@@H](Cc2ccc(F)cc2)NC(=O)CCC(=O)NCCCC[C@@H](C(N)=O)NC(=O)[C@H](Cc2c[nH]c3ccccc23)NC1=O` [Example 19] ([dPhe(4-F)]RWK-NH2; linker N-4 via Suc) are 0.07 ± 0.01 µM, 69, 143, 10 ± 2 µM and 4.8 ± 1 µM.
With `NCCCC[C@@H]1NC(=O)[C@@H](Cc2ccc3ccccc3c2)NC(=O)CCC(=O)NCCCC[C@@H](C(N)=O)NC(=O)[C@H](Cc2c[nH]c3ccccc23)NC1=O` [Example 20] ([d2Nal]KWK-NH2; linker N-4 via Suc), on human MC4 receptor, the IC50 came to 0.044 ± 0.007 µM, the “3:4” value worked out at 84 and the “5:4” value turned out to be 48. Besides, the IC50 on human MC5 receptor worked out at 2.1 ± 0.5 µM. This compound also registered an IC50 on human MC3 receptor of 3.7 ± 1.2 µM.
The like results for `N=C(N)NCCC[C@@H]1NC(=O)[C@@H](Cc2ccc3ccccc3c2)NC(=O)[C@H](CCCCN)NC(=O)CCC(=O)NCCCC[C@@H](C(N)=O)NC(=O)[C@H](Cc2c[nH]c3ccccc23)NC1=O` [Example 24] (K[d2Nal]RWK-NH2; linker N-5 via Suc) were, in that order, 0.04 ± 0.005 µM, 75, 250, 10 ± 8.7 µM and 3 ± 1.1 µM.
In the case of HS024, in assay [1], the body weight entry is reported as “increase” and the food intake entry was “increase”.
Consider MTII, for which the food intake result in assay [1] is recorded as “reduced”.
On to SHU9119, for which, in assay [1], the body weight entry is listed as “increased” and the food intake entry is recorded as “increased”.
